Converted amounts (≈) assume the structure as drawn. Where two headings read alike, the source gives them in different places.
Key:
S. pyogenes GC 4563 = assay: MIC, broth microdilution; conditions: Streptococcus pyogenes, GC4563, S. pyogenes GC 4563
E. faecium GC 4556 = assay: MIC, broth microdilution; conditions: Enterococcus faecium, GC4556, E. faecium GC 4556
E. faecalis GC 4555 = assay: MIC, broth microdilution; conditions: Enterococcus faecalis, GC4555, E. faecalis GC 4555
S. aureus GC 6469 = assay: MIC, broth microdilution; conditions: Staphylococcus aureus, GC6469, S. aureus GC 6469
S. aureus GC 1079 = assay: MIC, broth microdilution; conditions: Staphylococcus aureus, GC1079, S. aureus GC 1079
S. typhimurium GC 2172 = assay: MIC, broth microdilution; conditions: Salmonella enterica, TYPHIMURIUM, S. typhimurium GC 2172
S. aureus GC 6335 = assay: MIC, broth microdilution; conditions: Staphylococcus aureus, GC6335, S. aureus GC 6335
E. coli GC 2270 = assay: MIC, broth microdilution; conditions: Escherichia coli, GC2270, E. coli GC 2270
Description: Antimicrobial susceptibility testing. The in vitro activities of the antibiotics are determined by the broth microdilution method as recommended by the National Committee for Clinical Laboratory Standards (NCCLS) (1). Mueller-Hinton II broth (MHBII)(BBL Cockeysville, Md.) is the medium employed in the testing procedures. Microtiter plates containing serial dilutions of each antimicrobial agent are inoculated with each organism to yield the appropriate density (10^5 CFU/ml) in a 100 μl final volume. The plates are incubated for 18-22 hours at 35° C. in ambient air.
Representative compounds were first incubated in mouse serum for an hour prior to the in vitro testing against a panel of selected gram-positive and gram-negative bacteria strains. All compounds were also pre-incubated in water for an hour prior to testing as control. Representative compounds of Formula I were incubated in human serum prior to MIC determination.

E. coli GC 1073 = assay: MIC, broth microdilution; conditions: Escherichia coli, GC1073, E. coli GC 1073
E. faecium GC 2243 = assay: MIC, broth microdilution; conditions: Enterococcus faecium, GC2243, E. faecium GC 2243
S. agalactiae GC 4564 = assay: MIC, broth microdilution; conditions: Streptococcus agalactiae, GC4564, S. agalactiae GC 4564
c. albicans GC 3066 = assay: MIC, broth microdilution
E. coli GC 2233 = assay: MIC, broth microdilution; conditions: Escherichia coli, GC2233, E. coli GC 2233
Staph. = assay: Range of MIC for Staph. strains, including MRSA; conditions: Staphylococcus aureus, MRSA
E. coli = assay: Range of MIC for E. coli strains; conditions: Escherichia coli
E. faecalis GC 2265 = assay: MIC, broth microdilution; conditions: Enterococcus faecalis, GC2265, E. faecalis GC 2265
E. coli GC 2236 = assay: MIC, broth microdilution; conditions: Escherichia coli, GC2236, E. coli GC 2236
E. coli GC 2235 = assay: MIC, broth microdilution; conditions: Escherichia coli, GC2235, E. coli GC 2235
E. coli GC 2271 = assay: MIC, broth microdilution; conditions: Escherichia coli, GC2271, E. coli GC 2271
E. coli GC 3226 = assay: MIC, broth microdilution; conditions: Escherichia coli, GC3226, E. coli GC 3226

CCCN(CC(=O)Nc1cc(N(C)C)c2c(c1O)C(=O)C1=C(O)[C@]3(O)C(=O)C(C(N)=O)=C(O)[C@@H](N(C)C)[C@@H]3C[C@@H]1C2)C(=O)OCOC(=O)c1ccc(C)cc1 [Example 5, ({[(2-{[(5aR,6aS,7S,10aS)-9-(aminocarbonyl)-4,7-bis(dimethylamino)-1,8,10a,11-tetrahydroxy-10,12-dioxo-5,5a,6,6a,7,10,10a,12-octahydrotetracen-2-yl]amino}-2-oxoethyl)(propyl)amino]carbonyl}oxy)methyl 4-methylbenzoate]
MIC (S. pyogenes GC 4563; Mouse Serum pre-incubation): 0.12 µg/mL (≈ 0.157 µM)
MIC (S. pyogenes GC 4563; Water pre-incubation): 0.25 µg/mL (≈ 0.327 µM)
MIC (E. faecium GC 4556; Mouse Serum pre-incubation): 1 µg/mL (≈ 1.31 µM)
MIC (E. faecium GC 4556; Water pre-incubation): 2 µg/mL (≈ 2.62 µM)
MIC (E. faecalis GC 4555; Mouse Serum pre-incubation): 1 µg/mL (≈ 1.31 µM)
MIC (E. faecalis GC 4555; Water pre-incubation): 4 µg/mL (≈ 5.24 µM)
MIC (S. aureus GC 6469; Mouse Serum pre-incubation): 2 µg/mL (≈ 2.62 µM)
MIC (S. aureus GC 6469; Water pre-incubation): 4 µg/mL (≈ 5.24 µM)
MIC (S. aureus GC 1079; Mouse Serum pre-incubation): 2 µg/mL (≈ 2.62 µM)
MIC (S. aureus GC 1079; Water pre-incubation): 2 µg/mL (≈ 2.62 µM)
MIC (S. typhimurium GC 2172; Mouse Serum pre-incubation): 8 µg/mL (≈ 10.5 µM)
MIC (S. typhimurium GC 2172; Water pre-incubation): > 64 µg/mL
MIC (S. aureus GC 6335; Mouse Serum pre-incubation): 0.5 µg/mL (≈ 0.655 µM)
MIC (S. aureus GC 6335; Water pre-incubation): 1 µg/mL (≈ 1.31 µM)
MIC (E. coli GC 2270; Mouse Serum pre-incubation): 1 µg/mL (≈ 1.31 µM)
MIC (E. coli GC 2270; Water pre-incubation): 16 µg/mL (≈ 20.9 µM)
MIC (E. coli GC 1073; Mouse Serum pre-incubation): 2 µg/mL (≈ 2.62 µM)
MIC (E. coli GC 1073; Water pre-incubation): 32 µg/mL (≈ 41.9 µM)
MIC (E. faecium GC 2243; Mouse Serum pre-incubation): 0.5 µg/mL (≈ 0.655 µM)
MIC (E. faecium GC 2243; Water pre-incubation): 1 µg/mL (≈ 1.31 µM)
MIC (S. agalactiae GC 4564; Mouse Serum pre-incubation): 0.5 µg/mL (≈ 0.655 µM)
MIC (S. agalactiae GC 4564; Water pre-incubation): 0.5 µg/mL (≈ 0.655 µM)
MIC (c. albicans GC 3066; Candida albicans, GC3066): > 64 µg/mL
MIC (c. albicans GC 3066; c. albicans GC 3066, Water pre-incubation): >64 UG/ML
MIC (E. coli GC 2233; Mouse Serum pre-incubation): 2 µg/mL (≈ 2.62 µM)
MIC (E. coli GC 2233; Water pre-incubation): 32 µg/mL (≈ 41.9 µM)
MIC (Staph.; read-out: Range of MIC, Staph (Mouse Serum)): 0.25 to 2 µg/mL (≈ 0.327 to 2.62 µM)
MIC (Staph.; read-out: Range of MIC, Staph (Water)): 0.5 to 4 µg/mL (≈ 0.655 to 5.24 µM)
MIC (Staph.; read-out: Range of MIC, Staph. (mouse serum)): 0.25 to 2 µg/mL (≈ 0.327 to 2.62 µM)
MIC (Staph.; read-out: Range of MIC, Staph. (water)): 0.5 to 4 µg/mL (≈ 0.655 to 5.24 µM)
MIC (E. coli; 20 h, read-out: Range of MIC, E. coli (Mouse Serum)): 1 to 2 µg/mL (≈ 1.31 to 2.62 µM)
MIC (E. coli; read-out: Range of MIC, E. coli (Water)): 16 to 64 µg/mL (≈ 20.9 to 83.8 µM)
MIC (E. coli; read-out: Range of MIC, E. coli (mouse serum)): 1 to 2 µg/mL (≈ 1.31 to 2.62 µM)
MIC (E. coli; read-out: Range of MIC, E. coli (water)): 16 to 64 µg/mL (≈ 20.9 to 83.8 µM)
MIC (E. faecalis GC 2265; Mouse Serum pre-incubation): 2 µg/mL (≈ 2.62 µM)
MIC (E. faecalis GC 2265; Water pre-incubation): 4 µg/mL (≈ 5.24 µM)
MIC (E. coli GC 2236; Mouse Serum pre-incubation): 2 µg/mL (≈ 2.62 µM)
MIC (E. coli GC 2236; Water pre-incubation): 16 µg/mL (≈ 20.9 µM)
MIC (E. coli GC 2235; Mouse Serum pre-incubation): 1 µg/mL (≈ 1.31 µM)
MIC (E. coli GC 2235; Water pre-incubation): 16 µg/mL (≈ 20.9 µM)
MIC (E. coli GC 2271; Mouse Serum pre-incubation): 1 µg/mL (≈ 1.31 µM)
MIC (E. coli GC 2271; Water pre-incubation): 16 µg/mL (≈ 20.9 µM)
MIC (E. coli GC 3226; Mouse Serum pre-incubation): 2 µg/mL (≈ 2.62 µM)
MIC (E. coli GC 3226; Water pre-incubation): 32 µg/mL (≈ 41.9 µM)

Reference: patent US20070049564A1 (Wyeth, priority 2005, published 2007)
